Measured values taken from US8597660B2, “Therapeutic approach to neurodegenerative disorders using a TFP5-peptide” (The United States of America, as represented by the …, priority 2010, dated 2013).
“Also recorded” adds a separate entry of the source. Peptide text beside a SMILES is read from it. * marks the point of attachment. FITC = O=C1OC2(c3ccc(O)cc3Oc3cc(O)ccc32)c2ccc(NC(=S)*)cc21

Experiments:
[1] = Toxicity of ip TFP5 in mice; type: in vivo, mouse; settings: ip TFP5 (0.2 mM; or 10 weeks in three AD mice)
tau phosphorylation = experiment: Aβ-induced tau phosphorylation in cortical neurons, Western blot; type: cell-based, rat; settings: Aβ 6 h; P5 infection or roscovitine
Method: Primary cultures of rat cortical neurons were prepared from E-18 rat fetuses as described previously (Zheng et al., J Biol Chem 278(26), 24026-24032, 2003). After 7 days, cells were infected independently or co-infected with empty vector (EV), the constructs of P5, P25, P35, wild-type Cdk5 and dominant negative Cdk5 (changing Lys33 to Thr33) using the Adenoviral vector (pAdTrack-CMV) packaging system as described above. […] The cells were fixed for immunocytochemistry analyses (ICC) or lysed with lysis buffer for immunoprecipitation and Western blot analyses. Cortical neuron cultures were prepared and plated on the cover slips as described. Human embryo kidney cells (HEK293) were grown as described previously (Zheng et al., Eur J Biochem 269(18), 4427-4434, 2002). In these studies HEK293 cells on day 1, or neurons on day 5, were transfected with or without Myc-P5-GFP using Lipofectamine 2000 following the manufacturer's instructions.
(§1) Western blot analysis was performed as previously described (Zheng et al., Eur J Biochem 269(18), 4427-4434, 2002). In brief, an equal amount of total protein (20 μg/lane) was resolved on a 4-20% SDS polyacrylamide gel and blotted onto a polyvinylidene difluoride membrane. This membrane was incubated in blocking buffer containing 20 mM Tris-HCl (pH 7.4), 150 mM NaCl, and 0.1% (vol/vol) Tween 20 (TTBS) plus 5% dry milk (w/v) for 1 hour at room temperature followed by incubation overnight at 4° C. in primary antibodies (see antibodies). The membranes were then washed four times in TTBS (5 minutes/each) followed by incubation in secondary antibody (goat-antimouse or goat anti-rabbit IgG (H+L)-horseradish peroxidase (HRP) conjugate at a dilution of 1:3000) for 1 hour at room temperature. Western blots were analyzed using the Amersham Enhanced Chemiluminescence (ECL) kit following the manufacturer's instructions (GE Healthcare, Piscataway, N.J.).
Amyloid plaques and neurofibrillary tangles, pathological hallmarks of several neurodegenerative disorders, are linked to deregulated Cdk5 and neuronal death. According to one model, β amyloid, being toxic, may evoke abnormal calcium influx into neurons which activates calpains. […] Hyperactivation of Cdk5, leads to the aberrant phosphorylation of tau and neurofilaments in a number of neurodegenerative diseases including AD and ALS. For example, primary cortical neurons, when treated with Aβ1-42 are induced to form Cdk5/P25 complexes, hyperactive Cdk5 activity, hyperphosphorylation of tau, and neuronal apoptosis. To determine whether P5 will inhibit endogenous tau phosphorylation induced by Aβ treatment in cortical neurons, 7 day old cortical neurons, infected with empty vector (EV) or with P5 were treated with Aβ for 6 hours, lysed and prepared for Cdk5 immunoprecipitation and kinase assay. Aβ treatment causes an approximate 3-fold increase in endogenous Cdk5 activity as visualized by histone H1 phosphorylation (FIG. 4A, panel 5, lane 2; FIG. 4B).
; FIG. 4D). […] Tau antibodies p-Ser404, PHF antibody AT180 (recognizes p-Thr231) and p-Ser422 antibodies were used to observe whether P5 affects other tau phosphorylation residues (FIGS. 4E, 4F). […]. Tau 5 recognizes total tau, nonphosphorylated as well as phosphorylated.

cleaved caspase-3 = experiment: Cleaved caspase-3 Western blot in Aβ-treated cortical neurons; type: cell-based, rat; settings: Aβ 6 h; P5 infection or roscovitine
Method: as §1
To determine whether P5 inhibited neuronal apoptosis induced by Aβ, primary cortical neurons (5 days in culture (DIC)) were transfected with P5-GFP using Lipofectamine 2000. After 24 hours, cells were exposed to Aβ for 6 hours. The neurons were fixed and subjected to TUNEL staining, while P5 was visualized by (green fluorescent protein) GFP. […] The data are quantified in FIG. 5B. […] The data are quantified in FIG. 5D.

Cdk5/P25 [2] = molecular target: T1, Cdk5/P25 (Homo sapiens, UniProt Q00535); settings: earlier studies; cited from earlier work
T1 sequence (Q00535 whole entry, species assumed): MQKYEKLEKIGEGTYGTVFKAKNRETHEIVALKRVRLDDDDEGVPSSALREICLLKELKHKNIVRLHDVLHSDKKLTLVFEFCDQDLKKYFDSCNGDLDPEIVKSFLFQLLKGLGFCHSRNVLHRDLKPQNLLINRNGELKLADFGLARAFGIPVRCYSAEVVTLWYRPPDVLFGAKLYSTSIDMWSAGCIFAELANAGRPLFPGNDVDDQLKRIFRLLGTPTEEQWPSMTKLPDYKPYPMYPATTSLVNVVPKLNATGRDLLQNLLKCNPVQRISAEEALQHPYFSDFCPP

Cdk5/P25 [3] = molecular target: T1, Cdk5/P25; settings: earlier studies, cited from earlier work
Cdk5/P25 [4] = molecular target: T1, Cdk5/P25; experiment: In vitro kinase (pad) assay of active Cdk5/P25 with histone H1 as substrate; type: biochemical; settings: in vitro kinase assay, histone H1, FIG. 1
Method: Kinase assays were performed as previously described (Veeranna, et al., J Neurosci 18(11), 4008-4021, 1998). Briefly, 7 days in culture (7 DIC) primary rat cortical neurons were infected with P25, P35, Cdk5 wild-type, dominant negative-Cdk5 and P5 using the lentiviral gene delivery as described earlier. Cdk5 was immunoprecipitated using the polyclonal C8 antibody overnight at 4° C. and immunoglobulin isolated using Protein A sepharose beads for 2 hours at 4° C. Immunoprecipitates were washed three times with lysis buffer and then once with 1× kinase buffer containing 20 mM Tris-Cl pH 7.4, 1 mM EDTA, 1 mM EGTA, 10 mM MgCl2, 10 mM sodium fluoride and 1 mM sodium orthovanadate. Endogenous Cdks were immunoprecipitated from HEK 293 cells using their respective antibodies and treated as above. Kinase assays were performed in the same buffer containing 1 mM DTT, 0.1 mM ATP and 0.185 MBq [γ-32P] ATP with 20 μg of histone H1 as the substrate. Phosphorylation was performed in a final volume of […] incubated at 30° C. for 60 minutes, stopped by the addition of 10% SDS sample buffer and heating at 95° C. for 5 minutes. Samples were separated by SDS-PAGE, gels were stained with Coomassie, destained, dried and exposed to autoradiography. In pad assays, 25 μl aliquots of the incubation mixture were placed on a Whatman p80 paper square, washed and dried and placed in a scintillation vial for counting.
These are GST-P1 (E211-A277 of SEQ ID NO: 16), 67 amino acid residues; GST-P2 (M237-A277), 41 residues; GST-P3 (E221-L267 of SEQ ID NO: 16), 47 residues; GST-P4 (E221-L249 of SEQ ID NO: 16), 29 residues and GST-P5 (K254-A277 of SEQ ID NO: 16) 24 residues. Each was incubated with active Cdk5/P25 in a kinase assay in vitro. […] FIG. 10 provides a comparison of P5 and CIP, relative to P35.
In a dose-dependent kinase assay the effective inhibitory concentration of P5 for both the Cdk5/P25 and Cdk5/P35 complexes was evaluated. His-P5 peptide was added at different concentrations to the in vitro assay containing 100 μM [γ32-P] ATP and histone H1. Inhibition increased progressively with increasing P5 concentration in both complexes (Compare FIGS. 2A, 2B with 2C, 2D).
P5, a 24 amino acid peptide derived from Cdk5 regulator p35, was modified by conjugating it with TAT PTD at the C-terminal end and with FITC (using a GGG linker) at the N-terminus to produce a fluorescent (FITC-labeled) TFP5 (SEQ ID NO: 2) peptide. In a dose-dependent kinase assay the effective inhibitory concentration of TFP5 for both the Cdk5/P25 and Cdk5/P35 complexes was evaluated. His-P5 peptide was added at different concentrations to the in vitro assay containing 100 μM [γ32-P] ATP and histone H1. […] Data represent means of four independent experiments with error bars representing SEM (*p≦0.05, **p≦0.001).

CC[C@H](C)[C@H](NC(=O)[C@H](CCC(N)=O)NC(=O)[C@H](CC(C)C)NC(=O)[C@H](CCSC)NC(=O)[C@H](CCCCN)NC(=O)[C@H](CO)NC(=O)[C@H](CO)NC(=O)[C@H](CCSC)NC(=O)[C@H](CC(C)C)NC(=O)[C@H](CC(N)=O)NC(=O)[C@@H](NC(=O)[C@@H](NC(=O)[C@H](CO)NC(=O)[C@H](CC(C)C)NC(=O)[C@H](CS)NC(=O)[C@H](CCCNC(=N)N)NC(=O)[C@H](CC(=O)O)NC(=O)[C@H](Cc1c[nH]c2ccccc12)NC(=O)[C@H](Cc1ccccc1)NC(=O)[C@H](C)NC(=O)[C@H](CCC(=O)O)NC(=O)[C@H](CCCCN)NC(=O)CNC(=O)CNC(=O)CNC(=S)Nc1ccc2c(c1)C(=O)OC21c2ccc(O)cc2Oc2cc(O)ccc21)C(C)C)[C@@H](C)CC)C(=O)N[C@@H](CC(N)=O)C(=O)N[C@@H](C)C(=O)N[C@@H](Cc1ccc(O)cc1)C(=O)N[C@@H](C)C(=O)N[C@@H](CCCNC(=N)N)C(=O)N[C@@H](C)C(=O)N[C@@H](C)C(=O)N[C@@H](CCCNC(=N)N)C(=O)N[C@@H](CCCNC(=N)N)C(=O)N[C@@H](C)C(=O)N[C@@H](C)C(=O)N[C@@H](CCCNC(=N)N)C(=O)N[C@@H](CCCNC(=N)N)C(=O)O [TFP5] ({FITC}-GGGKEAFWDRCLSVINLMSSKMLQINAYARAARRAARR-OH)
Toxicity in vivo [1]: without any toxicity; also recorded: without resulting in cell death; also recorded: no toxic effects were observed

CC[C@H](CO)Nc1nc(NCc2ccccc2)c2ncn(C(C)C)c2n1 [roscovitine, reference compound]
Aβ-induced tau phosphorylation at Ser422 (tau phosphorylation): significantly inhibits tau phosphorylation at Ser422 site
Aβ-induced tau phosphorylation detected by AT8 and p-Ser199/202 antibodies (tau phosphorylation): baseline levels of tau phosphorylation; also recorded: significantly inhibited
Cleaved caspase-3 expression (cleaved caspase-3): reduced levels of cleaved caspase-3 comparable to that seen with P5 infection

CIP: 125-amino acid truncated peptide from P35 (residues 154-279 of SEQ ID NO: 16), inhibitor of Cdk5/P25
Inhibition of Cdk5/P25 activity by CIP (Cdk5/P25 [2]): highly effective and specific inhibitor of Cdk5/P25 activity
Tau hyperphosphorylation (Cdk5/P25 [3]): reduces tau hyperphosphorylation
Apoptosis induced by Cdk5/P25 (Cdk5/P25 [3]; transfected HEK cells and neurons): protects transfected HEK cells and neurons from apoptosis

P3: 47 residue peptide derived from CIP, E221-L267 of SEQ ID NO: 16 (P35)
Inhibition of Cdk5/P25 activity, comparison among peptides and CIP (Cdk5/P25 [4]): more effective inhibitors of Cdk5/P25 activity than CIP
